# Data as given in patent US20020106657A1, “Genetic test to determine non-responsiveness to statin drug treatment” (priority 1999, published 2002).
# “And” between values parts separate entries of the source, which are not always exact repeats. Equal entries are not always repeated. Where two headings read alike, the source gives them in different places.
# What was measured:
# [1] = system: CABG patients (saphenous-vein coronary-artery bypass grafts); details: cited from earlier work; for percentage of subjects with worsening of one or more grafts: 1351 subjects, average 4.3 years
# [2] = system: CABG patients (saphenous-vein coronary-artery bypass grafts); assay: Post-CABG Trial: angiographic graft worsening under lovastatin (aggressive vs moderate) and warfarin; assay type: in vivo, human
# Description: A genetic association study was conducted by a within-case comparison ancillary to the Post Coronary Artery Bypass Graft Trial. (The Post Coronary Artery Bypass Graft Trial Investigators. The effect of aggressive lowering of low-density lipoprotein cholesterol levels and low-dose anticoagulation on obstructive changes in saphenous-vein coronary-artery bypass grafts, N. Engl. J. Med. 336:153-62 [1997]). A two stage design was followed. First, EBV-transformed lymphoblastoid cell lines were established for subjects from the Los Angeles (L.A.) cohort providing a permanent source of DNA for testing hypotheses related to atherosclerosis-related candidate genes. Then, significant results were tested in a second stage by genotyping all available subjects in the post-CABG trial using DNA isolated from whole blood shipped to Cedars-Sinai Medical Center from the other participating centers.
# (§1) Participants were randomly assigned, following a two by two design, to receive 1) lovastatin therapy to lower the LDL-cholesterol level to within the range of 93-97 mg/dl (aggressive treatment group) or 132-136 mg/dl (moderate treatment group), and 2) placebo or low-dose warfarin (Post-CABG, 1997). Coronary angiograms of 1351 subjects at enrollment and an average of 4.3 years later were compared using a quantitative assessment of the severity of graft stenosis. Graft worsening was defined as a decrease in lumen diameter of 0.6mm or more. The percentage of subjects with worsening of one or more grafts was 39% in the aggressive treatment group compared to 51% in the moderate treatment group (p<0.00 1) and the mean percentage of grafts per patient showing worsening was 27% in the aggressive treatment group compared to 39% in the moderate treatment group (p<0.001).
# (§2) A total of 1351 subjects from seven clinical centers throughout North America were included in the clinical trial and all were eligible as participants. Genetic material was received from 891 subjects who were included in this ancillary study. Inclusion criteria for the clinical trial were: bypass surgery 1 -11 years prior to the study; an LDL-cholesterol level of 130-175 mg/dl; and at least one patent vein graft as determined by angiography. Subjects were excluded if there was: (a) the likelihood of revascularization or death within the study period of 5 years; (b) unstable angina or myocardial infarction within six months before the start of the trial; (c) severe angina; (d) heart failure; or (e) contraindications to the study medications. Id. Subjects were randomly assigned in a two by two factorial design for treatment to lower LDL-cholesterol levels aggressively (target LDL 93-97 mg/dl) or moderately (target LDL 132-136 mg/dl) with lovastatin and cholestyramine if needed, and for treatment with either placebo or warfarin sufficient to maintain an international normalized ratio of less than 2. Id. Graft worsening was determined by comparing the initial angiogram at enrollment with a follow-up angiogram repeated an average of 4.3 years later. “Worsening” was defined as a reduction in diameter ≧0.6mm in diameter. “Subjects with worsening” were defined as those subjects with one or more grafts showing worsening.
# Differences in baseline characteristics between treatment groups and between genotype groups were tested by one-way analysis of variance or Chi-square tests. Log-transformed HDL and TG values were used to perform all statistical analyses in order to adjust for their skewed distributions, but are presented in the tables as untransformed means ±SE. The association between graft worsening and LPL genotype was tested by Chi-square test. Mantel-Haenszel statistics were used for testing the interactions between genotypes and treatment groups. The proportion of grafts showing worsening per subject was used as the quantitative measurement of graft worsening, and multiple regression was performed to for this proportion as a function of genotype and treatment group to identify predictors. […]
# [3] = system: CABG patients; assay: Post-CABG Trial: serum lipid levels and lovastatin dose needed, by treatment group or LPL HindIII genotype; assay type: in vivo, human
# Description: as §1, §2
# Differences in baseline characteristics between treatment groups and between genotype groups were tested by one-way analysis of variance or Chi-square tests. Log-transformed HDL and TG values were used to perform all statistical analyses in order to adjust for their skewed distributions, but are presented in the tables as untransformed means ±SE. The association between graft worsening and LPL genotype was tested by Chi-square test. Mantel-Haenszel statistics were used for testing the interactions between genotypes and treatment groups. The proportion of grafts showing worsening per subject was used as the quantitative measurement of graft worsening, and multiple regression was performed to for this proportion as a function of genotype and treatment group to identify predictors. Adjusted variables for this trait included age, gender, body mass index, smoking status, number of years since CABG, systolic and diastolic blood pressure, current medicine use, and family history as listed in Table 1. All statistical analyses were carried out with SAS software (version 6.12, SAS Institute, Cary, N.C.).
# To investigate potential mechanisms for the association between the LPL HindIII 2/2 genotype and graft worsening, baseline characteristics and response of the subjects to the lipid-lowering action of lovastatin were compared between subjects (Table 3). There were no differences observed between the baseline values for total cholesterol, HDL-cholesterol, and triglycerides. However, a small difference in LDL-cholesterol was observed, 159.6±2.1 mg/dl for subjects with HindIII 2/2 compared with 155.0±0.7 for 1/1 and 1/2, p=0.04. […]
# [4] = Aggressive treatment group (N = 430), mean ± SE
# [5] = LPL HindIII 1/1 & 1/2 genotype (N = 817)
# [6] = LPL HindIII 2/2 genotype (N = 74)
# [7] = Moderate treatment group (N = 406), mean ± SE
smiles,measurement,setting,value
CC(=O)CC(c1ccccc1)c1c(O)c2ccccc2oc1=O (stereo not drawn) [warfarin],effect of the warfarin treatment on graft worsening,[1]; low-dose warfarin vs placebo,No effect
CC[C@H](C)C(=O)O[C@H]1C[C@@H](C)C=C2C=C[C@H](C)[C@H](CC[C@@H]3C[C@@H](O)CC(=O)O3)[C@H]21 [lovastatin],percentage of patients with atherosclerotic worsening of grafts within 4 years,[1]; aggressive lovastatin treatment (LDL-C lowered to 93-97 mg/dl),39%
same,percentage of subjects with worsening of one or more grafts,"[1]; aggressive treatment group, worsening = lumen diameter decrease 0.6 mm or more",39%
same,mean percentage of grafts per patient showing worsening,[1]; aggressive treatment group,27%
same,"number of patients who required a second CABG procedure, lower than in moderate-treatment group",[1]; aggressive vs moderate lovastatin treatment group,29%
same,percentage of patients with atherosclerotic worsening of grafts within 4 years,[1]; moderate lovastatin treatment (LDL-C lowered to 132-136 mg/dl),51%
same,percentage of subjects with worsening of one or more grafts,[1]; moderate treatment group,51%
same,mean percentage of grafts per patient showing worsening,[1]; moderate treatment group,39%
same,percent of subjects with graft worsening,"[2]; HindIII 1/1 and 1/2 genotype, moderate drug treatment group",49%
same,percent of subjects with graft worsening,"[2]; HindIII 1/1 or 1/2 genotype, aggressive lipid-lowering treatment group",35%
same,percent of subjects with graft worsening,"[2]; HindIII 2/2 genotype, aggressive treatment group",54%
same,percent of subjects with graft worsening,"[2]; HindIII 2/2 genotype, moderate lipid-lowering treatment group",65%
same,"odds ratio for graft worsening, combined unfavorable LPL HindIII genotype with moderate drug treatment","[2]; HindIII 2/2 plus moderate lipid-lowering, 95% CI 1.4-8.7",3.5
same,"odds ratio, effect of treatment on graft worsening","[2]; adjusted for / stratified by LPL HindIII genotype, 95% CI 1.32-2.4",1.78 and 1.8
same,"odds ratio for graft worsening, moderate vs aggressive drug treatment","[2]; within LPL HindIII 1/1 and 1/2 genotype group, 95% CI 1.3 to 2.4",1.8
same,Steady state lipid levels: HDL cholesterol,[3]; [4],44.9 ± 0.6 mg/dL
same,Steady state lipid levels: LDL cholesterol,[3]; [4],97.1 ± 1.3 mg/dL
same,Steady state lipid levels: Total cholesterol,[3]; [4],172.6 ± 1.6 mg/dL
same,Steady state lipid levels: Triglycerides,[3]; [4],157.4 ± 4.5 mg/dL
same,Lipid change: HDL cholesterol,[3]; [5],14.2 ± 1.0%
same,Lipid change: LDL cholesterol,[3]; [5],45.1 ± 1.5%
same,Lipid change: Total cholesterol,[3]; [5],15.2 ± 0.6%
same,Lipid change: Triglycerides,[3]; [5],8.2 ± 2.0%
same,Steady state lipid levels: HDL cholesterol,[3]; [5],44.1 ± 0.4 mg/dL
same,Steady state lipid levels: LDL cholesterol,[3]; [5],114.7 ± 1.1 mg/dL
same,Steady state lipid levels: Total cholesterol,[3]; [5],191.0 ± 1.3 mg/dL
same,Steady state lipid levels: Triglycerides,[3]; [5],163.6 ± 3.4 mg/dL
same,Lipid change: HDL cholesterol,[3]; [6],14.1 ± 3.1%
same,Lipid change: LDL cholesterol,[3]; [6],53.5 ± 6.9%
same,Lipid change: Total cholesterol,[3]; [6],16.9 ± 2.0%
same,Lipid change: Triglycerides,[3]; [6],6.0 ± 5.8%
same,Steady state lipid levels: HDL cholesterol,[3]; [6],46.7 ± 1.6 mg/dL
same,Steady state lipid levels: LDL cholesterol,[3]; [6],115.1 ± 4.3 mg/dL
same,Steady state lipid levels: Total cholesterol,[3]; [6],191.1 ± 4.8 mg/dL
same,Steady state lipid levels: Triglycerides,[3]; [6],151.0 ± 9.6 mg/dL
same,Steady state lipid levels: HDL cholesterol,[3]; [7],43.7 ± 0.6 mg/dL
same,Steady state lipid levels: LDL cholesterol,[3]; [7],133.0 ± 1.3 mg/dL
same,Steady state lipid levels: Total cholesterol,[3]; [7],209.5 ± 1.6 mg/dL
same,Steady state lipid levels: Triglycerides,[3]; [7],164.5 ± 4.4 mg/dL
